In patent publication US5480905A, “Benzodioxane derivatives” (Chugai Seiyaku Kabushiki Kaisha, priority 1991, dated 1996):
“Also recorded” adds a separate entry of the source.

Key:
serotonin 2 receptor = molecular target: T1, serotonin 2 receptor (Rattus norvegicus, UniProt P14842); test: Serotonin 2 receptor binding experiment (3H-ketancerine); conditions: rat cortex and hippocampal tissue; 0.5 nM 3H-ketancerine; IC50 in M; read-out: -logIC50 5-HT2 (converted)
T1 construct: the cortex and hippocampal tissue were extracted from the brain; from tissue; host or cells: brain cortex and hippocampus of 7-week-old male S.D. rats, washed membrane homogenate
Procedure: Affinity for intracerebral serotonin 1A and serotonin 2 receptor was checked in accordance with the method of Hall et al. (J. Neurochem., 44, 1685-1695, 1985) and the method of Leysen et al. (Mol. Pharmacol., 21, 301-314, 1982).
Stated more specifically, the cortex and hippocampal tissue were extracted from the brain of 7-wk old S.D. line male rats, mixed with 20 volumes of Tris-HCl buffer (50 mM, pH 7.7) and homogenized with a Teflon homogenizer. Thereafter, the homogenate was centrifuged at 39800×g for 20 min and the supernatant was discarded. Forty volumes of a buffer were added to the precipitate and the mixture was homogenized with a Polytron homogenizer, with the homogenate being centrifuged under the same condition as set forth above. The same procedure was repeated two more times and the final precipitate was homogenized with 40 volumes of a buffer; thereafter, the homogenate was stored at least overnight at -80° C. On the day when binding experiments were to be conducted, the homogenate was thawed at room temperature and incubated at 37° C. for 20 min to remove the endogenous serotonin.
Thereafter, centrifugation was conducted at 39800×g for 20 min and 40 volumes of a buffer were added to the precipitate, followed by homogenization. This procedure was repeated three times; to the final precipitate, a buffer was added in 65 volumes for the case of serotonin 1A receptor and in 80 volumes for the case of serotonin 2 receptor and the mixture was homogenized in preparation for the binding experiments that are described below. All procedures of experimentation except storage in a frozen state and thawing at room temperature were conducted at 4° C. or below.
A reaction solution containing 0.5 nM (final concentration) of ^3 H-ketancerine and 500 μl of brain homogenate in 1.0 ml (final volume) of a buffer was incubated at 30° C. for 30 min. Subsequent procedures were the same as in the serotonin 1A receptor binding experiment and IC50 (M) was determined accordingly. To determine the amount of specific binding, the amount of binding in the presence of excess unlabelled methysergide ([…]) was subtracted from the total amount of binding.

S.D. line male rats [1] = test: Antidepressant effect, compelled swim test (Porsolt), time over which rats remain motionless; format: in vivo, rat; parameters: Antidepressant effect / Antidepressant effect, longevity: scale not given here; conditions: for inhibition in vivo at 20 mg/kg / ED50: Rattus norvegicus, po, 0.5 h; for inhibition in vivo at 20 mg/kg: 30 min before swim, read-out: Antidepressant effect, Efficacy; for ED50: peroral, probit method, read-out: ED50, dose reducing motionless time by one half vs control
Procedure: An antidepression test was conducted in accordance with the method of Porsolt et al. (Europ. J. Pharmacol., 47, 379-391, 1978). Stated more specifically, 7-wk old S.D. line male rats were placed in a glass cylinder (18 cm^.phi. ×40 cm^H) for 15 min. The cylinder was filled with water (25° C.) to a depth of 15 cm. Thereafter, the rats were placed in a hot environment (32° C.) for 15 min before they were returned to the cage. Twenty-four hours later, the rats were compelled again to swim in the same cylinder for 5 min and the total time over which the rats remained motionless was measured. A test drug was administered perorally to each animal 30 min before it was compelled to swim for 5 min. Antidepressant agents are known to be capable of specifically reducing the time over which the rats would remain motionless (Psyehopharmaeol., 83, 1-16, 1984, and ibid., 94, 147-160, 1988). The antidepressant effect was calculated by the following formula: [formula]
(§1) The procedure of Test Examples 2 and 3 were repeated except that test compounds were administered perorally in a dose of 10 mg/kg.
(§2) The procedures of Test Example 2 and 3 were repeated, except that test compounds were administered perorally in a dose of 20 mg/kg to check the longevity of their antianxiety and antidepressant effects for 0.5, 2 and 4 h.

S.D. line male rats [2] = test: Antianxiety effect, water drinking under punishment (Vogel); format: in vivo, rat; parameters: Antianxiety effect / Antianxiety effect, longevity: unit not given here; conditions: for change in vivo at 20 mg/kg: Rattus norvegicus, po, read-out: Antianxiety effect, Efficacy
Procedure: Antianxiety test was conducted in accordance with a method adapted from the method of Vogel et al. (Psychopharmacol., 21, 1-7, 1971). Stated more specifically, S.D. line male rats weighing 250-300 g were entirely kept from water for 24 h and then placed in a concrete experimental box. […] The bottom of the box was made of a stainless steel grid, from which electric shock (0.2 mA, 0.5 sec) could be applied to the limbs of rats. The test schedule was as follows: first, the rats were acclimatized to the experimental box and trained for drinking water; this was done for 3 min without electric shock. The quantity of water drunk by the rats was then measured (under non-punishment). Then, the rats were kept from drinking water for 24 h. Thereafter, the quantity of water drunk by each rat was measured (before administration of test compound) under such conditions that an electric shock was applied each time a rat drank one water drop (under punishment).Thirty minutes later, a test drug was administered perorally and after an additional 20 min, the quantity of water drunk by each rat was again measured under punishment (after administration of test compound). The quantity of water drunk by rats will decrease under punishment but it is known that the initial level can be restored by administering an antianxiety agent.
The antianxiety effect of a test compound was calculated by the following formula: [formula]
as §1, §2

S.D. line male rats [3] = test: Sedative action, amount of spontaneous movement (Animex); format: in vivo, rat; conditions: for Amount of Spontaneous Movement: control 405.2 ± 47.7; for Sedative action / spontaneous movement: peroral 20-60 mg/kg
Procedure: Seven-week old male S.D. line rats were administered a test drug perorally and after the passage of 30 min, the amount of spontaneous movement of the rats was measured for 10 min by means of Animex.

[4] = test system: apomorphine induced stereotypic behavior; test: Antidopamine action, apomorphine induced stereotypic behavior; format: in vivo, rat; conditions: for Apomorphine Induced Stereotypic Behavior, sum of scores: maximum of 24; for Antidopamine action: peroral, apomorphine 0.5 mg/kg s.c.
Procedure: Seven-week old male S.D. line rats were administered a test drug perorally and after the passage of 30 min, the dopamine agonist apomorphine was injected subcutaneously in an amount of 0.5 mg/kg. For the subsequent 5-30 min period, the intensity of stereotypic behavior that was induced in the rats by apomorphine was measured six times at 5-min intervals by a scoring method and the sum of the scores was determined (for a maximum of 24).

[5] = peroral 20 mg/kg, 0.5 h after administration
[6] = peroral 20 mg/kg, 2.0 h after administration
[7] = peroral 20 mg/kg, 4.0 h after administration
[8] = 20 mg/kg peroral, control 14.4 ± 0.9 (Comp. 1: 16.0 ± 1.1)

T1 sequence (P14842 whole entry): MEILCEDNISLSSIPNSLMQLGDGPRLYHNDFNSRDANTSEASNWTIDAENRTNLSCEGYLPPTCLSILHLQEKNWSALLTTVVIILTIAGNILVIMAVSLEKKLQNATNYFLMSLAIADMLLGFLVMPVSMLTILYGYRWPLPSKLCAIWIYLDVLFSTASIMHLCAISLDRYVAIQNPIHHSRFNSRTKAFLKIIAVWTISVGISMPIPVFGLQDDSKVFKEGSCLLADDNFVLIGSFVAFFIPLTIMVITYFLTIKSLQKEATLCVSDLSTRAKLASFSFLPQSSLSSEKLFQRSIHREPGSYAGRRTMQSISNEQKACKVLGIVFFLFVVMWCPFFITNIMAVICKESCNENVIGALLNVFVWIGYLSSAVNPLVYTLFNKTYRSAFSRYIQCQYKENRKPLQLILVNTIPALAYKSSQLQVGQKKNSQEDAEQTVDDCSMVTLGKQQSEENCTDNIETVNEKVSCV

With `O=C(NCCN1CCN(c2ncccn2)CC1)C12CC3CC(CC(C3)C1)C2` [WY-50324, reference compound] the IC50 (serotonin 2 receptor) was 200 nM, the inhibition in vivo at 20 mg/kg (S.D. line male rats [1]; peroral 20 mg/kg) was 58.1 ± 5% and the ED50 (S.D. line male rats [1]) was 24.3 mg/kg. The “Antidepressant effect, longevity” value (S.D. line male rats [1]; [5]) was 56.7, the “Antidepressant effect, longevity” value (S.D. line male rats [1]; [6]) was 17.3 and the “Antidepressant effect, longevity” value (S.D. line male rats [1]; [7]) was 0.7. The change in vivo at 20 mg/kg (S.D. line male rats [2]; peroral 20 mg/kg) was 46.9 ± 6.3%, the “Antianxiety effect, longevity” value (S.D. line male rats [2]; [5]) was 57.8 and the “Antianxiety effect, longevity” value (S.D. line male rats [2]; [6]) was 24.8. For the same compound, the “Antianxiety effect, longevity” value (S.D. line male rats [2]; [7]) was 11.2, the “Amount of Spontaneous Movement” value (S.D. line male rats [3]; 20 mg/kg peroral) was 315.5 Counts/10 min and the “Amount of Spontaneous Movement” value (S.D. line male rats [3]; 40 mg/kg peroral) was 361.9 Counts/10 min. For the same compound, the “Amount of Spontaneous Movement” value (S.D. line male rats [3]; 60 mg/kg peroral) was 401.6 Counts/10 min, the “Sedative action / spontaneous movement” value (S.D. line male rats [3]) was “no appreciable sedative action” and the “Apomorphine Induced Stereotypic Behavior, sum of scores” value ([4]; 10 mg/kg peroral, control 14.4 ± 0.9) was 14.7. For the same compound, the “Apomorphine Induced Stereotypic Behavior, sum of scores” value [4, 8] was 12.1, the “Apomorphine Induced Stereotypic Behavior, sum of scores” value ([4]; 40 mg/kg peroral, control 14.4 ± 0.9) was 10.9 and the “Antidopamine action” value [4] was “showed an inhibitory action in high doses”.
`Cc1cccc2c1OC(CNCCNC(=O)C13CC4CC(CC(C4)C1)C3)CO2` (stereo not shown) [Compound 1, N-{[2-(8-methyl-1,4-benzodioxan-2-ylmethyl)amino]ethyl}tricyclo[3,3,1,1^3, ^7]decane-1-carboxyamide] was tested, and the IC50 (serotonin 2 receptor) was 30.2 nM, the inhibition in vivo at 20 mg/kg (S.D. line male rats [1]; peroral 20 mg/kg) was 72 ± 5.5% and the ED50 (S.D. line male rats [1]) was 8.1 mg/kg. For the same compound, the Antidepressant effect (S.D. line male rats [1]; peroral 10 mg/kg) was 66.7 ± 12.6, the “Antidepressant effect” value (S.D. line male rats [1]; peroral 20 mg/kg) was “better antidepressant effects than WY-50324” and the “Antidepressant effect, longevity” value (S.D. line male rats [1]; [5]) was 71.8. The “Antidepressant effect, longevity” value (S.D. line male rats [1]; [6]) was 73.9, the “Antidepressant effect, longevity” value (S.D. line male rats [1]; [7]) was 40.7 and the “Antidepressant activity relative to WY-50324 (ED50)” value (S.D. line male rats [1]; ratio of ED50) was “three times the activity of WY-50324”. For the same compound, the change in vivo at 20 mg/kg (S.D. line male rats [2]; peroral 20 mg/kg) was 85.4 ± 10.3%, the Antianxiety effect (S.D. line male rats [2]; peroral 10 mg/kg) was 42.4 ± 2.1 and the “Antianxiety and antidepressant effects” value (S.D. line male rats [2]; peroral 10 mg/kg, Table 6) was “superiority”. For the same compound, the “Antianxiety effect” value (S.D. line male rats [2]; peroral 20 mg/kg) was “better effects than MDL-73005”, the “Antianxiety effect, longevity” value (S.D. line male rats [2]; [5]) was 52.8 and the “Antianxiety effect, longevity” value (S.D. line male rats [2]; [6]) was 48.2. For the same compound, the “Antianxiety effect, longevity” value (S.D. line male rats [2]; [7]) was 29.5, the “Amount of Spontaneous Movement” value (S.D. line male rats [3]; 20 mg/kg peroral) was 442.0 Counts/10 min and the “Amount of Spontaneous Movement” value (S.D. line male rats [3]; 40 mg/kg peroral) was 401.8 Counts/10 min. The “Amount of Spontaneous Movement” value (S.D. line male rats [3]; 60 mg/kg peroral) was 319.4 Counts/10 min, the “Sedative action / spontaneous movement” value (S.D. line male rats [3]) was “no appreciable sedative action” and the “Apomorphine Induced Stereotypic Behavior, sum of scores” value [4, 8] was 14.7. The “Antidopamine action” value [4] was “no effect at all when it was used in a dose of 20 mg/kg; also recorded: no antidopamine action”.
